Laboratory results published in patent US20100267561A1, “HERBICIDAL PYRIDAZINONE DERIVATIVES” (priority 2007, published 2010).

Tests used:
Test in all cases: Test B pre-/postemergence plant response
Type in all cases: in vivo
[1] = test system: Russian thistle (Salsola iberica); details: Preemergence
Method in brief: (§1)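 Visual scoring from 0 (no effect) to 100 (complete control) against untreated controls was done 13 to 15 days after greenhouse treatment. Chemicals were formulated in a surfactant-containing non-phytotoxic solvent and applied to soil preemergence or to 1- to 4-leaf (2-18 cm) plants postemergence.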

[2] = test system: blackgrass (Alopecurus myosuroides); details: for Blackgrass plant response rating: 8 g ai/ha
Method in brief: as §1

[3] = test system: cocklebur (Xanthium strumarium); details: for Cocklebur plant response rating: 8 g ai/ha
Method in brief: as §1

[4] = test system: common (oilseed) sunflower (Helianthus annuus); details: Preemergence
Method in brief: as §1

[5] = test system: common ragweed (Ambrosia elation); details: for Ragweed plant response rating: 8 g ai/ha
Method in brief: as §1

corn (Zea mays) = details: for Corn plant response rating: 8 g ai/ha
Method in brief: as §1

[6] = test system: downy bromegrass (Bromus tectorum); details: for Bromegrass, Downy plant response rating: 8 g ai/ha
Method in brief: as §1

[7] = test system: eastern black (E.B.) nightshade (Solanum ptycanthum); details: Preemergence
Method in brief: as §1

[8] = test system: green foxtail (Setaria viridis); details: for Foxtail, Green plant response rating: 8 g ai/ha
Method in brief: as §1

[9] = test system: surinam grass (Brachiaria decumbens); details: for Surinam Grass plant response rating: 8 g ai/ha
Method in brief: as §1

[10] = test system: wheat (Triticum aestivum); details: for Wheat plant response rating: 8 g ai/ha
Method in brief: as §1

wild oat (Avena fatua) = details: for Oat, Wild plant response rating: 8 g ai/ha
Method in brief: as §1

[11] = test system: woolly cupgrass (Eriochloa villosa)
Method in brief: as §1

[12] = test system: yellow nutsedge (Cyperus esculentus); details: for Nutsedge, Yellow plant response rating: 8 g ai/ha
Method in brief: as §1

[13] = 16 g ai/ha, scale 0 to 100 (0 no effect, 100 complete control)
[14] = 31 g ai/ha, scale 0 to 100 (0 no effect, 100 complete control)
[15] = Postemergence, 16 g ai/ha, scale 0 to 100
[16] = Postemergence, 31 g ai/ha, scale 0 to 100, 0 no effect, 100 complete control
[17] = Postemergence, 62 g ai/ha, scale 0 to 100, 0 no effect, 100 complete control
[18] = Preemergence, 16 g ai/ha, scale 0 to 100 (0 no effect, 100 complete control)
[19] = Preemergence, 31 g ai/ha, 0 to 100 scale, 0 no effect, 100 complete control
[20] = Preemergence, 62 g ai/ha, scale 0 to 100
[21] = Preemergence, 31 g ai/ha, scale 0 to 100 (0 no effect, 100 complete control)
[22] = Preemergence, 62 g ai/ha, 0 to 100 scale, 0 no effect, 100 complete control

## Cc1cc(-c2ccc(C(F)(F)F)c(F)c2)nn1-c1c(O)c(C(F)(F)F)nn(C)c1=O [Compound 44]
[1]; [13]
  Plant response rating, Russian Thistle: 0
[1]; [14]
  Plant response rating, Russian Thistle: 0
[1]; 62 g ai/ha, scale 0 to 100
  Plant response rating, Russian Thistle: 0
[1]; 8 g ai/ha, scale 0 to 100
  Russian Thistle plant response rating: 0
[2]; postemergence, 0-100 scale
  Blackgrass plant response rating: 85
[2]; [15]
  Plant response rating, Blackgrass: 90
[2]; [16]
  Plant response rating, Blackgrass: 98
[2]; [17]
  Plant response rating, Blackgrass: 98
[2]; [18]
  Plant response rating, Blackgrass: 100
[2]; [19]
  Plant response rating, Blackgrass: 100
[2]; [20]
  Plant response rating, Blackgrass: 100
[2]; Preemergence, scale 0 to 100
  Blackgrass plant response rating: 90
[3]; postemergence, 0-100 scale
  Cocklebur plant response rating: 0
[3]; [15]
  Plant response rating, Cocklebur: 0
[3]; [16]
  Plant response rating, Cocklebur: 0
[3]; [17]
  Plant response rating, Cocklebur: 0
[3]; [18]
  Plant response rating, Cocklebur: 0
[3]; [19]
  Plant response rating, Cocklebur: 0
[3]; [20]
  Plant response rating, Cocklebur: 0
[3]; Preemergence, scale 0 to 100
  Cocklebur plant response rating: 0
[4]; [13]
  Plant response rating, Sunflower: 0
[4]; 62 g ai/ha, scale 0 to 100
  Plant response rating, Sunflower: 0
[4]; 8 g ai/ha, scale 0 to 100
  Sunflower plant response rating: 0
[5]; postemergence, 0-100 scale
  Ragweed plant response rating: 0
[5]; [15]
  Plant response rating, Ragweed: 0
[5]; [16]
  Plant response rating, Ragweed: 0
[5]; [17]
  Plant response rating, Ragweed: 0
[5]; [18]
  Plant response rating, Ragweed: 0
[5]; [21]
  Plant response rating, Ragweed: 0
[5]; [20]
  Plant response rating, Ragweed: 20
[5]; Preemergence, scale 0 to 100
  Ragweed plant response rating: 0
Corn (Zea mays); postemergence, 0-100 scale
  Corn plant response rating: 85
Corn (Zea mays); [15]
  Plant response rating, Corn: 95
Corn (Zea mays); [16]
  Plant response rating, Corn: 95
Corn (Zea mays); [17]
  Plant response rating, Corn: 95
Corn (Zea mays); [18]
  Plant response rating, Corn: 55
Corn (Zea mays); [19]
  Plant response rating, Corn: 65
Corn (Zea mays); [20]
  Plant response rating, Corn: 85
Corn (Zea mays); Preemergence, scale 0 to 100
  Corn plant response rating: 0
[6]; postemergence, 0-100 scale
  Bromegrass, Downy plant response rating: 40
[6]; [15]
  Plant response rating, Bromegrass, Downy: 60
[6]; [16]
  Plant response rating, Bromegrass, Downy: 70
[6]; [17]
  Plant response rating, Bromegrass, Downy: 90
[6]; [18]
  Plant response rating, Bromegrass, Downy: 20
[6]; [19]
  Plant response rating, Bromegrass, Downy: 60
[6]; [20]
  Plant response rating, Bromegrass, Downy: 85
[6]; Preemergence, scale 0 to 100
  Bromegrass, Downy plant response rating: 0
[7]; [13]
  Plant response rating, Nightshade, E. B.: 0
[7]; [14]
  Plant response rating, Nightshade, E. B.: 0
[7]; 62 g ai/ha, scale 0 to 100
  Plant response rating, Nightshade, E. B.: 55
[7]; 8 g ai/ha, scale 0 to 100
  Nightshade, E. B. plant response rating: 0
[8]; postemergence, 0-100 scale
  Foxtail, Green plant response rating: 75
[8]; [15]
  Plant response rating, Foxtail, Green: 95
[8]; [16]
  Plant response rating, Foxtail, Green: 95
[8]; [17]
  Plant response rating, Foxtail, Green: 100
[8]; [18]
  Plant response rating, Foxtail, Green: 98
[8]; [19]
  Plant response rating, Foxtail, Green: 100
[8]; [20]
  Plant response rating, Foxtail, Green: 100
[8]; Preemergence, scale 0 to 100
  Foxtail, Green plant response rating: 40
[9]; postemergence, 0-100 scale
  Surinam Grass plant response rating: 98
[9]; [15]
  Plant response rating, Surinam Grass: 100
[9]; [17]
  Plant response rating, Surinam Grass: 100
[9]; [18]
  Plant response rating, Surinam Grass: 0
[9]; [21]
  Plant response rating, Surinam Grass: 0
[9]; [22]
  Plant response rating, Surinam Grass: 20
[9]; Preemergence, scale 0 to 100
  Surinam Grass plant response rating: 0
[10]; postemergence, 0-100 scale
  Wheat plant response rating: 55
[10]; [15]
  Plant response rating, Wheat: 90
[10]; [17]
  Plant response rating, Wheat: 95
[10]; [18]
  Plant response rating, Wheat: 0
[10]; [21]
  Plant response rating, Wheat: 10
[10]; [22]
  Plant response rating, Wheat: 90
[10]; Preemergence, scale 0 to 100
  Wheat plant response rating: 0
Wild oat (Avena fatua); postemergence, 0-100 scale
  Oat, Wild plant response rating: 90
Wild oat (Avena fatua); [15]
  Plant response rating, Oat, Wild: 95
Wild oat (Avena fatua); [16]
  Plant response rating, Oat, Wild: 100
Wild oat (Avena fatua); [17]
  Plant response rating, Oat, Wild: 100
Wild oat (Avena fatua); [18]
  Plant response rating, Oat, Wild: 80
Wild oat (Avena fatua); [21]
  Plant response rating, Oat, Wild: 85
Wild oat (Avena fatua); [20]
  Plant response rating, Oat, Wild: 90
Wild oat (Avena fatua); Preemergence, scale 0 to 100
  Oat, Wild plant response rating: 25
[11]; 8 g ai/ha, postemergence, 0-100 scale
  Cupgrass, Woolly plant response rating: 98
[11]; [15]
  Plant response rating, Cupgrass, Woolly: 98
[11]; [16]
  Plant response rating, Cupgrass, Woolly: 100
[11]; [17]
  Plant response rating, Cupgrass, Woolly: 100
[11]; [18]
  Plant response rating, Cupgrass, Woolly: 0
[11]; [19]
  Plant response rating, Cupgrass, Woolly: 0
[11]; [20]
  Plant response rating, Cupgrass, Woolly: 100
[12]; postemergence, 0-100 scale
  Nutsedge, Yellow plant response rating: 0
[12]; [15]
  Plant response rating, Nutsedge, Yellow: 0
[12]; [16]
  Plant response rating, Nutsedge, Yellow: 0
[12]; [17]
  Plant response rating, Nutsedge, Yellow: 0
[12]; [18]
  Plant response rating, Nutsedge, Yellow: 0
[12]; [21]
  Plant response rating, Nutsedge, Yellow: 0
[12]; [20]
  Plant response rating, Nutsedge, Yellow: 0
[12]; Preemergence, scale 0 to 100
  Nutsedge, Yellow plant response rating: 0
